Results on 26 compounds are retold here after patent US20260125378A2, “Heterocyclic Compounds” (BeOne Medicines I GmbH, priority 2023, published 2026).

Test [1] addresses T1, Full length DGKζ (in-house protein M1-V929) (Homo sapiens, UniProt Q13574).
T1 construct: His (N); TEV site (N); made in house; host or cells: Sf9 insect cells (Bac-to-Bac baculovirus)
Put plainly: Biochemical DGK IC50 assay (ADP-Glo, lipid micelle substrate), DGKζ. The following applies: 1 hour preincubation, 1 hour reaction, room temperature. The method in brief: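 Full-length human DGKζ (M1-V929, His-TEV tagged, Sf9 baculovirus-expressed) with DAG/PS lipid micelle substrate in octyl glucoside, at room temperature in 50 mM HEPES, 10 mM MgCl2, 0.01 mM CaCl2 buffer.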

Test [2] concerns the target T2, Full length DGKα (D21-10BG, SignalChem) (Homo sapiens, UniProt P23743).
T2 construct: Full length DGKα (D21-10BG, SignalChem); purchased SignalChem D21-10BG
The experiment in a line: Biochemical DGK IC50 assay (ADP-Glo, lipid micelle substrate), DGKα. To be noted: 1 hour preincubation, 1 hour reaction, room temperature. The method in brief:
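Full-length human DGKα with DAG/PS lipid micelle substrate (in octyl glucoside buffer), reacted 1 h at room temperature in 50 mM HEPES, 10 mM MgCl2, 0.01 mM CaCl2, 0.1 mM Na3VO4, 0.01% BSA, 0.005% Tween-20. ADP formed read by ADP-Glo luminescence; IC50 from inhibition across increasing compound concentrations.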
For orientation: ADP-Glo turns the ADP formed in a reaction into a luminescent signal.

T2 sequence (P23743 whole entry): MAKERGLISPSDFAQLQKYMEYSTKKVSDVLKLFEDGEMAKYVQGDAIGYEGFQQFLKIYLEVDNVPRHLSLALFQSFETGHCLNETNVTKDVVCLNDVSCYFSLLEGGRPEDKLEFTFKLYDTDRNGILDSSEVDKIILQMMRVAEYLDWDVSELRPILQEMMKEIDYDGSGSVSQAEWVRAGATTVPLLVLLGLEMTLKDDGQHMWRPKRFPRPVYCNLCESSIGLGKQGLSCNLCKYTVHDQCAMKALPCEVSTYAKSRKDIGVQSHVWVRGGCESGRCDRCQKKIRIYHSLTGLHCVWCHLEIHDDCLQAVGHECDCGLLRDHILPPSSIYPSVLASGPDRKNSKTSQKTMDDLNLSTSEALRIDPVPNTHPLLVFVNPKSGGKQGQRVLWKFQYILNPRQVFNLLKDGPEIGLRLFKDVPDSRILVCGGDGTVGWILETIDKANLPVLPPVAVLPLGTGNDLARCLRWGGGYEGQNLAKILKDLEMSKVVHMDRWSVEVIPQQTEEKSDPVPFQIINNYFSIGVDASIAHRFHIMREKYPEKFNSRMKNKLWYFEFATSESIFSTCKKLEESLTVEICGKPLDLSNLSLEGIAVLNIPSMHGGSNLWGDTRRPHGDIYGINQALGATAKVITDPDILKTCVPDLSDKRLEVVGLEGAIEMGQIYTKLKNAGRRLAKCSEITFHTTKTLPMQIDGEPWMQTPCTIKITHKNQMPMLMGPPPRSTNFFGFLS
T1 sequence (Q13574 1-929 isoform Q13574-4): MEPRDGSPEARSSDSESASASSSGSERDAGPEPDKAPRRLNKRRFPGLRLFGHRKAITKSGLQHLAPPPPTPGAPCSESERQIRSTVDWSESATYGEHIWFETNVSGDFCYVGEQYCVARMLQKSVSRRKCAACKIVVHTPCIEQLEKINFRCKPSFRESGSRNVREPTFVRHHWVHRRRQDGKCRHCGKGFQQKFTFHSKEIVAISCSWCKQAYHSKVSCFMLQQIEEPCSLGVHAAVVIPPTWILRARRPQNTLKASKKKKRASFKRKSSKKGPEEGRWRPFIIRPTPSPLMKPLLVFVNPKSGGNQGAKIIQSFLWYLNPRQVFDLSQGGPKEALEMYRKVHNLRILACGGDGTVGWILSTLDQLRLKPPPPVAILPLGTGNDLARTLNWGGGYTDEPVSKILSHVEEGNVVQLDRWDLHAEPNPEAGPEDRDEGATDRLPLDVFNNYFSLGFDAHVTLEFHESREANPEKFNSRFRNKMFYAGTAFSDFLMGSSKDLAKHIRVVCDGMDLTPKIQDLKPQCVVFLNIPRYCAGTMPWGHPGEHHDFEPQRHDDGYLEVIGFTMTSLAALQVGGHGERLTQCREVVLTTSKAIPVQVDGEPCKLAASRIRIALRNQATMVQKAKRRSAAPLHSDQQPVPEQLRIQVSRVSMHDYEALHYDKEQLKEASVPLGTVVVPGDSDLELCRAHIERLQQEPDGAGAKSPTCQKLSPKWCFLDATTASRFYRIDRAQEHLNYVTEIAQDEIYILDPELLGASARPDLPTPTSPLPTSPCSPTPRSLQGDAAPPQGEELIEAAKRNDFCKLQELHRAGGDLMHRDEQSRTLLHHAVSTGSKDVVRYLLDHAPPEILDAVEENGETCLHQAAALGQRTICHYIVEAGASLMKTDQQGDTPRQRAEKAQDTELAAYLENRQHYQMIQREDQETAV

With `CCn1c(CC#N)nc2c(N3C[C@@H](C)N(C(C)c4ccc5c(c4)C(C)(C)N(C)C5=O)C[C@@H]3C)nc(=O)n(C)c21` (stereo partly drawn) [Compound A84, 2-(6-((2S,5R)-2,5-dimethyl-4-(1-(2,3,3-trimethyl-1-oxoisoindolin-5-yl)ethyl)piperazin-1-yl)-9-ethyl-3-methyl-2-oxo-3,9-dihydro-2H-purin-8-yl)acetonitrile], the IC50 in test [1] was 232 nM; in test [2], greater than 150 µM.

As to `CCn1c(CC#N)nc2c(N3C[C@@H](C)N(C(C)c4ccc5c(c4)OC(C)(C)CC5)C[C@@H]3C)nc(=O)n(C)c21` (single isomer, unassigned) [Compound A94a], the IC50 in test [1] worked out at 6 nM; in test [2], 16.6 µM.

For the compound `CC(c1cccnc1C(F)(F)F)N1C[C@H](C)N(c2cc(=O)n(C)c3c2nc(CC#N)n3C)C[C@H]1C` (single isomer, unassigned) [Compound A7b], the IC50 in test [1] was 35 nM; in test [2], 97.6 µM.

As for `CCn1c(CC#N)nc2c(N3C[C@@H](C)N(C(C)c4ccc(F)c5c4OC(C)(C)O5)C[C@@H]3C)nc(=O)n(C)c21` (single isomer, unassigned) [Compound A185a], the IC50 was determined as 806 nM in test [1] and 121 µM in test [2].

For the compound `CC(c1ccc2c(c1)OC(C)(C)CO2)N1C[C@H](C)N(c2c(F)c(=O)n(C)c3c2nc(CC#N)n3C)C[C@H]1C` (single isomer, unassigned) [Compound A19a], the IC50 in test [1] was 2.8 nM; in test [2] it was 27.5 µM.

Turning to `CC[C@@H]1CN(c2nc(=O)n(CC)c3c2nc(CC#N)n3C)[C@@H](C)CN1C(C)c1ccc2c(c1)OC(C)(C)CO2` (single isomer, unassigned) [Compound A66a], the IC50 was 217 nM in test [1] and 15.8 µM in test [2].

For `CCn1c(CC#N)nc2c(N3C[C@@H](C)N(C(C)c4ccc5occ(C)c(=O)c5c4)C[C@@H]3C)nc(=O)n(C)c21` (stereo partly drawn) [Compound A91, 2-(6-((2S,5R)-2,5-dimethyl-4-(1-(3-methyl-4-oxo-4H-chromen-6-yl)ethyl)piperazin-1-yl)-9-ethyl-3-methyl-2-oxo-3,9-dihydro-2H-purin-8-yl)acetonitrile], the half-maximal inhibitory concentration (IC50) in test [1] was 20 nM; in test [2], greater than 150 µM.

In the case of `CCn1c(CC#N)nc2c(N3C[C@@H](C)N(C(C)c4cccc5c4OC(F)(F)O5)C[C@@H]3C)nc(=O)n(C)c21` (stereo partly drawn) [Compound A187, 2-(6-((2S,5R)-4-(1-(2,2-difluorobenzo[d][1,3]dioxol-4-yl)ethyl)-2,5-dimethylpiperazin-1-yl)-9-ethyl-3-methyl-2-oxo-3,9-dihydro-2H-purin-8-yl)acetonitrile], the 50% inhibitory concentration (IC50) in test [1] came to 407 nM; in test [2], 115 µM.

As to `CCn1c(CC#N)nc2c(N3C[C@@H](C)N(C(C)c4cc(Cl)c5c(c4)OC(C)(C)CO5)C[C@@H]3C)nc(=O)n(C)c21` (stereo partly drawn) [Compound A72, 2-(6-((2S,5R)-4-(1-(8-chloro-3,3-dimethyl-2,3-dihydrobenzo[b][1,4]dioxin-6-yl)ethyl)-2,5-dimethylpiperazin-1-yl)-9-ethyl-3-methyl-2-oxo-3,9-dihydro-2H-purin-8-yl)acetonitrile], the IC50 was 64 nM in test [1] and greater than 150 µM in test [2].

For the compound `CCn1c(CC#N)nc2c(N3C[C@@H](C)N(C(C)c4ccc5c(n4)OC(C)(C)CO5)C[C@@H]3C)nc(=O)n(C)c21` (single isomer, unassigned) [Compound A74b], the IC50 is 4870 nM in test [1] and greater than 150 µM in test [2].

As for `CC[C@H]1CN(C(C)c2ccc3c(c2)OC(C)(C)CO3)[C@H](CC)CN1c1nc(=O)n(C)c2c1nc(CC#N)n2C` (single isomer, unassigned) [Compound A64a], the figures for the half-maximal inhibitory concentration (IC50) in test [1] and in test [2] were 0.88 nM and 5.28 µM, respectively.

Turning to `CCn1c(CC#N)nc2c(N3C[C@@H](C)N(C(C)c4ccc5c(c4)c(=O)c(C)cn5C)C[C@@H]3C)nc(=O)n(C)c21` (stereo partly drawn) [Compound A193, 2-(6-((2S,5R)-4-(1-(1,3-dimethyl-4-oxo-1,4-dihydroquinolin-6-yl)ethyl)-2,5-dimethylpiperazin-1-yl)-9-ethyl-3-methyl-2-oxo-3,4,5,9-tetrahydro-2H-purin-8-yl)acetonitrile], the IC50 in test [1] was greater than 10000 nM; in test [2], greater than 150 µM.

In the case of `CC(c1ccc2c(c1)OC(C)(C)O2)N1C[C@H](C)N(c2nc(=O)n(C)c3c2nc(CC#N)n3CC(F)F)C[C@H]1C` (stereo partly drawn) [Compound A166, 2-(9-(2,2-difluoroethyl)-6-((2S,5R)-4-(1-(2,2-dimethylbenzo[d][1,3]dioxol-5-yl)ethyl)-2,5-dimethylpiperazin-1-yl)-3-methyl-2-oxo-3,9-dihydro-2H-purin-8-yl)acetonitrile], the half-inhibitory concentration (IC50) was found to be 14 nM in test [1] and 26.1 µM in test [2].

With `CCn1c(CC#N)nc2c(N3C[C@@H](C)N(C(C)c4ccc5c(c4)OC(F)(F)CO5)C[C@@H]3C)nc(=O)n(C)c21` (mixture of isomers) [Compound A80, 2-(6-((2S,5R)-4-(1-(3,3-difluoro-2,3-dihydrobenzo[b][1,4]dioxin-6-yl)ethyl)-2,5-dimethylpiperazin-1-yl)-9-ethyl-3-methyl-2-oxo-3,9-dihydro-2H-purin-8-yl)acetonitrile], the 50% inhibitory concentration (IC50) in test [1] was 31 nM; in test [2], 95 µM.

With `CC[C@@H]1CN(c2nc(=O)n(C)c3c2nc(CC#N)n3C)[C@@H](C)CN1C(C)c1ccc2c(c1)OC(C)(C)CO2` (single isomer, unassigned) [Compound A63a], the IC50 in test [1] amounted to 2 nM; in test [2], 10.3 µM.

On to `CCn1c(CC#N)nc2c(N3C[C@@H](C)N(C(C)c4ccc5c(c4)OC(C)(C)CC5)C[C@@H]3C)nc(=O)n(C)c21` (single isomer, unassigned) [Compound A94b], for which the IC50 in test [1] was 532 nM; in test [2] it was greater than 150 µM.

In the case of `CC(c1cccc(C(F)(F)F)c1)N1C[C@H](C)N(c2nc(=O)n(C)c3c2nc(CC#N)n3C)C[C@H]1C` (stereo partly drawn) [Compound A41, 2-(6-((2S,5R)-2,5-dimethyl-4-(1-(3-(trifluoromethyl)phenyl)ethyl)piperazin-1-yl)-3,9-dimethyl-2-oxo-3,9-dihydro-2H-purin-8-yl)acetonitrile], the IC50 in test [1] was 16 nM; in test [2], 9.7 µM.

Turning to `CCn1c(CC#N)nc2c(N3C[C@@H](C)N(C(C)c4cc5c(cn4)OCC(C)(C)O5)C[C@@H]3C)nc(=O)n(C)c21` (stereo partly drawn) [Compound A75, 2-(6-((2S,5R)-4-(1-(2,2-dimethyl-2,3-dihydro-[1,4]dioxino[2,3-c]pyridin-7-yl)ethyl)-2,5-dimethylpiperazin-1-yl)-9-ethyl-3-methyl-2-oxo-3,9-dihydro-2H-purin-8-yl)acetonitrile], the IC50 in test [1] is 253 nM; in test [2], greater than 150 µM.

With `CCn1c(CC#N)nc2c(N3C[C@@H](C)N(C(C)c4ccc5c(n4)C(F)(F)CCO5)C[C@@H]3C)nc(=O)n(C)c21` (stereo partly drawn) [Compound A102, 2-(6-((2S,5R)-4-(1-(4,4-difluoro-3,4-dihydro-2H-pyrano[3,2-b]pyridin-6-yl)ethyl)-2,5-dimethylpiperazin-1-yl)-9-ethyl-3-methyl-2-oxo-3,9-dihydro-2H-purin-8-yl)acetonitrile], the IC50 is 37 nM in test [1] and greater than 150 µM in test [2].

Turning to `CCn1c(CC#N)nc2c(N3C[C@@H](C)N(C(C)c4ccc5c(c4Cl)OC(C)(C)O5)C[C@@H]3C)nc(=O)n(C)c21` (single isomer, unassigned) [Compound A172b], the figures for the IC50 in test [1] and in test [2] were 8 nM and 116 µM, respectively.

For `Cc1cnc2ccc(C(C)N3C[C@H](C)N(c4c(F)c(=O)n(C)c5c4nc(CC#N)n5C)C[C@H]3C)cc2n1` (single isomer, unassigned) [Compound A23b], the IC50 in test [1] amounted to 94 nM; in test [2], 16.2 µM.

Turning to `CCn1c(CC#N)nc2c(N3C[C@@H](C)N(C(C)c4ccc5c(c4)OC(C)(C)CC5=O)C[C@@H]3C)nc(=O)n(C)c21` (stereo partly drawn) [Compound A81, 2-(6-((2S,5R)-4-(1-(2,2-dimethyl-4-oxochroman-7-yl)ethyl)-2,5-dimethylpiperazin-1-yl)-9-ethyl-3-methyl-2-oxo-3,9-dihydro-2H-purin-8-yl)acetonitrile], the IC50 in test [1] is 7 nM; in test [2], greater than 150 µM.

As for `CCn1c(CC#N)nc2c(N3C[C@@H](C)N(C(C)c4ccc(F)c(C(F)(F)F)c4)C[C@@H]3C)nc(=O)n(C)c21` (stereo partly drawn) [Compound A113, 2-(9-ethyl-6-((2S,5R)-4-(1-(4-fluoro-3-(trifluoromethyl)phenyl)ethyl)-2,5-dimethylpiperazin-1-yl)-3-methyl-2-oxo-3,9-dihydro-2H-purin-8-yl)acetonitrile], the IC50 was 18 nM in test [1] and greater than 150 µM in test [2].

In the case of `CCn1c(CC#N)nc2c(N3C[C@@H](C)N(C(C)c4cccc(C(C)C)n4)C[C@@H]3C)nc(=O)n(C)c21` (stereo partly drawn) [Compound A123, 2-(9-ethyl-6-((2S,5R)-4-(1-(6-isopropylpyridin-2-yl)ethyl)-2,5-dimethylpiperazin-1-yl)-3-methyl-2-oxo-3,9-dihydro-2H-purin-8-yl)acetonitrile], the values for the IC50 in test [1] and in test [2] were 49 nM and 128 µM, respectively.

In the case of `CCn1c(CC#N)nc2c(N3C[C@@H](C)N(C(C)c4cccc(OC)c4)C[C@@H]3C)nc(=O)n(C)c21` (stereo partly drawn) [Compound A46, 2-(9-ethyl-6-((2S,5R)-4-(1-(3-methoxyphenyl)ethyl)-2,5-dimethylpiperazin-1-yl)-3-methyl-2-oxo-3,9-dihydro-2H-purin-8-yl)acetonitrile], the IC50 in test [1] is 301 nM; in test [2], greater than 150 µM.

In the case of `CCn1c(CC#N)nc2c(N3C[C@@H](C)N(C(C)c4cc(F)c5c(n4)OC(C)(C)CO5)C[C@@H]3C)nc(=O)n(C)c21` (single isomer, unassigned) [Compound A163b], the figures for the IC50 in test [1] and in test [2] were 2070 nM and greater than 150 µM, respectively.

Usually IC50 stands for the point on the concentration scale where inhibition reaches its midpoint. A lower IC50 goes with inhibition by little substance.
